The values below come from patent US20050165102A1, “Compositions and dosage forms for enhanced absorption” (priority 2003, published 2005).

Each structure is given as a SMILES string. Counter-ions that a name gives are not always drawn. Like-named read-outs stand apart in the source and are kept apart here.

The conditions of data set [1]: for Bioavailability: relative to iv gabapentin; for gabapentin plasma concentration rat1: 0 h.
A short description of data set [2]: Flushed ligated colonic model in rats (gabapentin). As to conditions: for gabapentin plasma concentration Rat1: colonic intubation 10 mg/rat. The source says:
The colon was flushed of fecal materials.
Each segment was observed macroscopically for irritation and any abnormality noted.

For data set [3] the following is noted: iv 1 mg/rat, 0 h.
The conditions of data set [4]: rat, in vivo, po, 40 mg/kg.

For the molecule `CCCCCCCCCCCCOS(=O)(=O)O.NCC1(CC(=O)O)CCCCC1` [Gabapentin lauryl sulfate], the “percent bioavailability versus neat drug” value in data set [1] (duodenal, dosage of 20 mg (FIG. 19C)) was “higher bioavailability than did the neat drug”.

With `NCC1(CC(=O)O)CCCCC1` [Gabapentin, 1-(aminomethyl)cyclohexaneacetic acid, reference compound], the “gabapentin plasma concentration Rat1” value in data set [2] (0 h) turned out to be 0 ng/mL; in data set [2] (1 h), 189 ng/mL; in data set [3] it was 0 ng/mL. The Bioavailability came to 4.9% in data set [2] (colonic, percent of intravenous administration); 62.5 ± 9.4% in data set [1] (duodenal 5 mg/rat (14.8 / 14.0 mg/kg)); 44.2 ± 10.1% in data set [1] (duodenal 10 mg/rat (30.6 / 29.1 mg/kg)); 26.2 ± 8.2% in data set [1] (duodenal 20 mg/rat (59.8 / 58.1 mg/kg)). Besides, the “macroscopic observation of colonic mucosa for irritation” value in data set [2] (excised colonic segments after 4 hour test period) is “no histopathological change visible to the naked eye”. In addition, the “gabapentin plasma concentration rat1” value in data set [1] (duodenal dose 5 mg/rat), in data set [1] (duodenal dose 10 mg/rat) and in data set [1] (duodenal dose 20 mg/rat) was 0 ng/mL throughout.

`CN(C)C(=N)N=C(N)N` [Metformin HCl, metformin hydrochloride, reference compound]: in data set [4], the “time of plasma concentration maximum after treatment” value was “about 1 hour”.

Regarding `CCCCCCCCCCCC(=O)O.CN(C)C(=N)N=C(N)N` [Metformin laurate], in data set [4], the “time of plasma concentration maximum after treatment” value was “about 1 hour”.
